Measurements reported in ChEMBL document CHEMBL5512659, “Structure optimizing of flavonoids against both MRSA and VRE” (Eur J Med Chem, 2024).
Values after ≈ are worked out from the molar mass of the structure shown.

What was measured:
Type in all cases: functional
Staphylococcus aureus [1] = assay: Antibacterial activity against methicillin resistant Staphylococcus aureus clinical isolate 003
Enterococcus faecalis [2] = assay: Antibacterial activity against multidrug resistant Enterococcus faecalis ATCC 51299
Staphylococcus aureus [3] = assay: Antibacterial activity against methicillin resistant Staphylococcus aureus clinical isolate 031
Staphylococcus aureus [4] = assay: Antibacterial activity against methicillin resistant Staphylococcus aureus clinical isolate 011
Staphylococcus aureus [5] = assay: Antibacterial activity against Staphylococcus aureus clinical isolate 29
Staphylococcus aureus [6] = assay: Antibacterial activity against Staphylococcus aureus clinical isolate 31
Enterococcus faecalis [7] = assay: Antibacterial activity against Enterococcus faecalis clinical isolate 7
Enterococcus faecalis [8] = assay: Antibacterial activity against Enterococcus faecalis clinical isolate 13

Compound	MIC (Staphylococcus aureus [1])	MIC (Enterococcus faecalis [2])	further results
CCCCCCc1c(-c2ccc(OCCCCNCc3ccc(C(F)(F)F)cc3)cc2OCCCCNCc2ccc(C(F)(F)F)cc2)oc2cc(OC)cc(O)c2c1=O	16 µg/mL (≈ 19 µM)	16 µg/mL (≈ 19 µM)	MIC (Staphylococcus aureus [3]): 8 µg/mL (≈ 9.49 µM); MIC (Staphylococcus aureus [4]): 8 µg/mL (≈ 9.49 µM); MIC (Staphylococcus aureus [5]): 16 µg/mL (≈ 19 µM); MIC (Staphylococcus aureus [6]): 8 µg/mL (≈ 9.49 µM); MIC (Enterococcus faecalis [7]): 32 µg/mL (≈ 38 µM); MIC (Enterococcus faecalis [8]): 8 µg/mL (≈ 9.49 µM)
CC(C)=CCC/C(C)=C/CCCc1c(-c2ccc(O)cc2O)oc2cc(O)cc(O)c2c1=O	32 µg/mL (≈ 71 µM)	> 64 µg/mL	–
CCCCCCCCc1c(-c2ccc(OC)cc2OC)oc2cc(OC)cc(OC)c2c1=O	> 64 µg/mL	> 64 µg/mL	–
CCCCCCCCc1c(-c2ccc(O)cc2O)oc2cc(OC)cc(O)c2c1=O	8 µg/mL (≈ 19.4 µM)	16 µg/mL (≈ 38.8 µM)	–
CCCCCCc1c(-c2ccc(OCCCCNCc3ccco3)cc2OCCCCNCc2ccco2)oc2cc(OC)cc(O)c2c1=O	2 µg/mL (≈ 2.91 µM)	4 µg/mL (≈ 5.82 µM)	MIC (Staphylococcus aureus [3]): 4 µg/mL (≈ 5.82 µM); MIC (Staphylococcus aureus [4]): 2 µg/mL (≈ 2.91 µM); MIC (Staphylococcus aureus [5]): 2 µg/mL (≈ 2.91 µM); MIC (Staphylococcus aureus [6]): 4 µg/mL (≈ 5.82 µM); MIC (Enterococcus faecalis [7]): 4 µg/mL (≈ 5.82 µM); MIC (Enterococcus faecalis [8]): 2 µg/mL (≈ 2.91 µM)
CCCCCCCCCCCCc1c(-c2ccc(O)cc2O)oc2cc(OC)cc(O)c2c1=O	16 µg/mL (≈ 34.1 µM)	32 µg/mL (≈ 68.3 µM)	–
CCCCCc1c(-c2ccc(OC)cc2OC)oc2cc(OC)cc(OC)c2c1=O	> 64 µg/mL	> 64 µg/mL	–
CCCCCc1c(-c2ccc(O)cc2O)oc2cc(OC)cc(O)c2c1=O	8 µg/mL (≈ 21.6 µM)	16 µg/mL (≈ 43.2 µM)	–
CCCCCCc1c(-c2ccc(OCCCCNCC)cc2OCCCCNCC)oc2cc(OC)cc(O)c2c1=O	1 µg/mL (≈ 1.72 µM)	2 µg/mL (≈ 3.43 µM)	MIC (Staphylococcus aureus [3]): 2 µg/mL (≈ 3.43 µM); MIC (Staphylococcus aureus [4]): 2 µg/mL (≈ 3.43 µM); MIC (Staphylococcus aureus [5]): 2 µg/mL (≈ 3.43 µM); MIC (Staphylococcus aureus [6]): 1 µg/mL (≈ 1.72 µM); MIC (Enterococcus faecalis [7]): 2 µg/mL (≈ 3.43 µM); MIC (Enterococcus faecalis [8]): 1 µg/mL (≈ 1.72 µM)
CC(C)=CCc1c(-c2ccc(O)cc2O)oc2c3c(cc(O)c2c1=O)OC(C)(C)C=C3 [MORUSIN]	5 µg/mL (≈ 11.9 µM)	5 µg/mL (≈ 11.9 µM)	–
CC(C)=CCc1c(-c2ccc(O)c3c2OC(C)(C)C=C3)oc2cc(O)cc(O)c2c1=O [KUWANON A]	5 µg/mL (≈ 11.9 µM)	10 µg/mL (≈ 23.8 µM)	–
CCCCCCNCCCCOc1ccc(-c2oc3cc(OC)cc(O)c3c(=O)c2CCCCCC)c(OCCCCNCCCCCC)c1	8 µg/mL (≈ 11.5 µM)	64 µg/mL (≈ 92.1 µM)	MIC (Staphylococcus aureus [3]): 8 µg/mL (≈ 11.5 µM); MIC (Staphylococcus aureus [4]): 16 µg/mL (≈ 23 µM); MIC (Staphylococcus aureus [5]): 16 µg/mL (≈ 23 µM); MIC (Staphylococcus aureus [6]): 4 µg/mL (≈ 5.76 µM); MIC (Enterococcus faecalis [7]): 32 µg/mL (≈ 46 µM); MIC (Enterococcus faecalis [8]): 64 µg/mL (≈ 92.1 µM)
CCCCCc1c(-c2ccc(O)cc2O)oc2cc(O)cc(O)c2c1=O	16 µg/mL (≈ 44.9 µM)	16 µg/mL (≈ 44.9 µM)	–
CCCCc1c(-c2ccc(O)cc2O)oc2cc(OC)cc(O)c2c1=O	16 µg/mL (≈ 44.9 µM)	32 µg/mL (≈ 89.8 µM)	–
CCCCCCc1c(-c2ccc(OCCN(C)C)cc2OCCN(C)C)oc2cc(OC)cc(O)c2c1=O	1 µg/mL (≈ 1.9 µM)	4 µg/mL (≈ 7.59 µM)	MIC (Staphylococcus aureus [3]): 4 µg/mL (≈ 7.59 µM); MIC (Staphylococcus aureus [4]): 2 µg/mL (≈ 3.8 µM); MIC (Staphylococcus aureus [5]): 1 µg/mL (≈ 1.9 µM); MIC (Staphylococcus aureus [6]): 2 µg/mL (≈ 3.8 µM); MIC (Enterococcus faecalis [7]): 4 µg/mL (≈ 7.59 µM); MIC (Enterococcus faecalis [8]): 2 µg/mL (≈ 3.8 µM)
CCCCCCc1c(-c2ccc(OCCCCN(CC)CC)cc2OCCCCN(CC)CC)oc2cc(OC)cc(O)c2c1=O	2 µg/mL (≈ 3.13 µM)	4 µg/mL (≈ 6.26 µM)	MIC (Staphylococcus aureus [3]): 2 µg/mL (≈ 3.13 µM); MIC (Staphylococcus aureus [4]): 2 µg/mL (≈ 3.13 µM); MIC (Staphylococcus aureus [5]): 2 µg/mL (≈ 3.13 µM); MIC (Staphylococcus aureus [6]): 1 µg/mL (≈ 1.57 µM); MIC (Enterococcus faecalis [7]): 4 µg/mL (≈ 6.26 µM); MIC (Enterococcus faecalis [8]): 2 µg/mL (≈ 3.13 µM)
COc1cc(O)c2c(=O)cc(-c3ccc(O)cc3O)oc2c1 [ARTOCARPETIN]	> 64 µg/mL	> 64 µg/mL	–
CCCCCCc1c(-c2ccc(O)cc2O)oc2cc(O)cc(O)c2c1=O	8 µg/mL (≈ 21.6 µM)	16 µg/mL (≈ 43.2 µM)	–
CCCCCCCCCCCCCCCCc1c(-c2ccc(OC)cc2OC)oc2cc(OC)cc(OC)c2c1=O	> 64 µg/mL	> 64 µg/mL	–
CC(C)=CCc1c(-c2ccc(O)cc2O)oc2c(CC=C(C)C)c(O)cc(O)c2c1=O [KUWANON C]	5 µg/mL (≈ 11.8 µM)	10 µg/mL (≈ 23.7 µM)	–
CC(C)=CCCC1=C[C@@H](c2c(O)cc3oc(-c4ccc(O)cc4O)cc(=O)c3c2O)[C@H](C(=O)c2ccc(O)cc2O)[C@@H](c2ccc(O)cc2O)C1	5 µg/mL (≈ 7.22 µM)	10 µg/mL (≈ 14.4 µM)	–
CCCCCCCCCCCCCCCCc1c(-c2ccc(O)cc2O)oc2cc(O)cc(O)c2c1=O	> 64 µg/mL	> 64 µg/mL	–
COc1ccc(-c2oc3cc(OC)cc(OC)c3c(=O)c2CCC=C(C)C)c(OC)c1	> 64 µg/mL	> 64 µg/mL	–
CCCc1c(-c2ccc(OC)cc2OC)oc2cc(OC)cc(OC)c2c1=O	> 64 µg/mL	> 64 µg/mL	–
O=c1c(CCCCc2ccccc2)c(-c2ccc(O)cc2O)oc2cc(O)cc(O)c12	16 µg/mL (≈ 38.2 µM)	32 µg/mL (≈ 76.5 µM)	–
COc1cc(O)c2c(=O)c(CCC=C(C)C)c(-c3ccc(O)cc3O)oc2c1	16 µg/mL (≈ 41.8 µM)	32 µg/mL (≈ 83.7 µM)	–
CCCCCCCCCCCCCCCCc1c(-c2ccc(O)cc2O)oc2cc(OC)cc(O)c2c1=O	32 µg/mL (≈ 61 µM)	64 µg/mL (≈ 122 µM)	–

Compound	MIC (Staphylococcus aureus [1])	MIC (Enterococcus faecalis [2])	further results
COc1cc(O)c2c(=O)c(CCCCc3ccccc3)c(-c3ccc(O)cc3O)oc2c1	8 µg/mL (≈ 18.5 µM)	16 µg/mL (≈ 37 µM)	–
CC(C)=CCc1c(-c2ccc(O)cc2O)oc2c([C@H]3C=C(C)C[C@@H](c4ccc(O)cc4O)[C@@H]3C(=O)c3ccc(O)cc3O)c(O)cc(O)c2c1=O [KUMANON G]	5 µg/mL (≈ 7.22 µM)	5 µg/mL (≈ 7.22 µM)	–
C=CCc1c(-c2ccc(O)cc2O)oc2cc(O)cc(O)c2c1=O	64 µg/mL (≈ 196 µM)	> 64 µg/mL	–
CCCCc1c(-c2ccc(OC)cc2OC)oc2cc(OC)cc(OC)c2c1=O	> 64 µg/mL	> 64 µg/mL	–
CCCCCCc1c(-c2ccc(OC)cc2OC)oc2cc(OC)cc(OC)c2c1=O	> 64 µg/mL	> 64 µg/mL	–
CCCCCCCCCCc1c(-c2ccc(O)cc2O)oc2cc(O)cc(O)c2c1=O	16 µg/mL (≈ 37.5 µM)	32 µg/mL (≈ 75 µM)	–
COc1cc(O)c2c(=O)c(CCC/C=C(\C)CCC=C(C)C)c(-c3ccc(O)cc3O)oc2c1	16 µg/mL (≈ 34.4 µM)	32 µg/mL (≈ 68.9 µM)	–
CCc1c(-c2ccc(O)cc2O)oc2cc(OC)cc(O)c2c1=O	> 64 µg/mL	64 µg/mL (≈ 195 µM)	–
CCCc1c(-c2ccc(O)cc2O)oc2cc(O)cc(O)c2c1=O	64 µg/mL (≈ 195 µM)	> 64 µg/mL	–
CCCCc1c(-c2ccc(O)cc2O)oc2cc(O)cc(O)c2c1=O	32 µg/mL (≈ 93.5 µM)	32 µg/mL (≈ 93.5 µM)	–
CCCCCCCCCCCCc1c(-c2ccc(O)cc2O)oc2cc(O)cc(O)c2c1=O	32 µg/mL (≈ 70.4 µM)	64 µg/mL (≈ 141 µM)	–
CCc1c(-c2ccc(O)cc2O)oc2cc(O)cc(O)c2c1=O	> 64 µg/mL	> 64 µg/mL	–
CCCCCCCCCCc1c(-c2ccc(O)cc2O)oc2cc(OC)cc(O)c2c1=O	16 µg/mL (≈ 36.3 µM)	16 µg/mL (≈ 36.3 µM)	–
COc1ccc(-c2oc3cc(OC)cc(OC)c3c(=O)c2CCCCc2ccccc2)c(OC)c1	> 64 µg/mL	> 64 µg/mL	–
CCc1c(-c2ccc(OC)cc2OC)oc2cc(OC)cc(OC)c2c1=O	> 64 µg/mL	> 64 µg/mL	–
CCCCCCc1c(-c2ccc(OCCCCNCc3ccc(Br)cc3)cc2OCCCCNCc2ccc(Br)cc2)oc2cc(OC)cc(O)c2c1=O	64 µg/mL (≈ 74 µM)	> 64 µg/mL	MIC (Staphylococcus aureus [4]): 64 µg/mL (≈ 74 µM); MIC (Staphylococcus aureus [5]): > 64 µg/mL; MIC (Staphylococcus aureus [6]): 64 µg/mL (≈ 74 µM); MIC (Enterococcus faecalis [7]): > 64 µg/mL; MIC (Enterococcus faecalis [8]): > 64 µg/mL
CC(C)=CCc1c(O)ccc(C(=O)[C@@H]2[C@@H](c3ccc(O)cc3O)CC(C)=C[C@H]2c2c(O)cc(O)c3c(=O)c(CC=C(C)C)c(-c4ccc(O)cc4O)oc23)c1O	2.5 µg/mL (≈ 3.29 µM)	5 µg/mL (≈ 6.57 µM)	–
CCCc1c(-c2ccc(O)cc2O)oc2cc(OC)cc(O)c2c1=O	32 µg/mL (≈ 93.5 µM)	64 µg/mL (≈ 187 µM)	–
O=c1cc(-c2ccc(O)cc2O)oc2cc(O)cc(O)c12 [NORARTOCARPETIN]	> 64 µg/mL	> 64 µg/mL	–
COc1ccc(-c2oc3cc(OC)cc(OC)c3c(=O)c2CCC/C=C(\C)CCC=C(C)C)c(OC)c1	> 64 µg/mL	> 64 µg/mL	–
CC(C)=CCCc1c(-c2ccc(O)cc2O)oc2cc(O)cc(O)c2c1=O	32 µg/mL (≈ 86.9 µM)	32 µg/mL (≈ 86.9 µM)	–
C=CCc1c(-c2ccc(OC)cc2OC)oc2cc(OC)cc(OC)c2c1=O	> 64 µg/mL	> 64 µg/mL	–
CCCCCCCCCCCCc1c(-c2ccc(OC)cc2OC)oc2cc(OC)cc(OC)c2c1=O	> 64 µg/mL	> 64 µg/mL	–
COc1ccc(-c2cc(=O)c3c(OC)cc(OC)cc3o2)c(OC)c1	> 64 µg/mL	> 64 µg/mL	–
CCCCCCCCCCc1c(-c2ccc(OC)cc2OC)oc2cc(OC)cc(OC)c2c1=O	> 64 µg/mL	> 64 µg/mL	–
CCCCCCCCc1c(-c2ccc(O)cc2O)oc2cc(O)cc(O)c2c1=O	16 µg/mL (≈ 40.2 µM)	16 µg/mL (≈ 40.2 µM)	–
C=CCc1c(-c2ccc(O)cc2O)oc2cc(OC)cc(O)c2c1=O	32 µg/mL (≈ 94 µM)	64 µg/mL (≈ 188 µM)	–
